Assay results: patent US4067990A, “Process for the preparation of insecticidal compositions based on carbamic esters” (Airwick Industries, Inc., priority 1971, dated 1978)
Where two headings read alike, the source gives them in different places.

How the values were obtained:
[1] = Dissolution capacity of diluents/solvents for Dioxacarb and Arprocarb; format: physicochemical
[2] = at 25° C
[3] = at 20° C, solute Arprocarb, footnotes

Molecule	Dissolution capacity for DIOXACARB ([1]; at 20° C, solute Dioxacarb) [weight %]	Dissolving capacity for Dioxacarb ([1]; at 20° C, solute Dioxacarb)	Vapour pressure [2]	further results
CCCCCC [Hexane]	0.2	approximately 0.2%	151 Torr	Dissolution capacity for ARPROCARB ([1]; at 20° C, solute Arprocarb): 0.3 weight %; Dissolving capacity for Arprocarb [1, 3]: 0.3%
CC#N [Acetonitrile]	35.5	35.5%	86 Torr	
OCC(O)CO [Glycerol]	0.6		< 0.0001 Torr	
CCC(C)OC(C)=O (stereo not shown) [sec. Butylacetate]	6		26 Torr	
CCCCCCCCOC(=O)c1ccccc1C(=O)OCCCCCCCC [Dioctylphthalate]	0.1	0.1%	< 0.0001 Torr	Dissolution capacity for ARPROCARB ([1]; at 20° C, solute Arprocarb): 2.6 weight %; Dissolving capacity for Arprocarb [1, 3]: 2.6%; Vapour pressure ([2]; listed as Dioctyl phthalate): below 0.0001 Torr; Vapour pressure ([2]; listed as dioctylphthalate): < 0.005 Torr
CCCCCl [1-Chlorobutane]	2	2%	102 Torr	
CCCCC [Pentane]			513 Torr	Dissolution capacity for ARPROCARB [1]: 0.3 weight %; Dissolution capacity for DIOXACARB [1]: 0.2 weight %; Dissolving capacity for Arprocarb [1]: 0.3%; Dissolving capacity for Dioxacarb [1]: approximately 0.2%
CCCCCCCC/C=C\CCCCCCCC(=O)O [Oleic acid]	1.2		0.0002 Torr	
C[N+](=O)[O-] [Nitromethane]	27.5	27.5%	34 Torr	
CO [Methanol]	20.5	20.5%	127 Torr	
ClC(Cl)Cl [Trichloromethane]			194 Torr	Dissolution capacity for DIOXACARB [1]: 34 weight %; Dissolving capacity for Dioxacarb [1]: 34%; Vapour pressure ([2]; listed as Chloroform): 194 Torr
COC(C)=O [Methylacetate]	19.6	19.6%	216 Torr	Dissolution capacity for ARPROCARB ([1]; at 20° C, solute Arprocarb): 41 weight %; Dissolving capacity for Arprocarb [1, 3]: 41%
CC(=O)OCC(C)C [Isobutylacetate]	6		17 Torr	
ClCCl [Dichloromethane]			420 Torr	Dissolution capacity for ARPROCARB [1]: 48 weight %; Dissolution capacity for DIOXACARB [1]: 45 weight %; Dissolving capacity for Arprocarb [1]: approximately 48%; Dissolving capacity for Dioxacarb [1]: 45%
C1CCOC1 [Tetrahydrofuran]	33.5	33.5%	176 Torr	Dissolution capacity for ARPROCARB ([1]; at 20° C, solute Arprocarb): 50 weight %; Dissolving capacity for Arprocarb [1, 3]: approximately 50%
CCCCCCCCCCCCCCBr [1-Bromotetradecane]	0.1		< 0.001 Torr	Vapour pressure ([2]; listed as 1-bromotetradecane): < 0.005 Torr
CCC(C)=O [Methylethylketone]	5		20 Torr	
CCCC(=O)OC [Methylbutyrate]	8		34 Torr	
Tetrachlorodiphenyle	1.3	1.3%	< 0.001 Torr	Vapour pressure ([2]; listed as Tetrachlorodiphenyl): below 0.001 Torr; Vapour pressure ([2]; listed as tetrachlorodiphenyl): < 0.005 Torr
CCO [Ethanol]				Dissolution capacity for ARPROCARB [1]: 0.3 weight %; Dissolution capacity for DIOXACARB [1]: 0.2 weight %; Dissolving capacity for Arprocarb [1]: 40%; Dissolving capacity for Dioxacarb [1]: 8%
CCC(=O)OC [Methylpropionate]	12		83 Torr	
CCCCOC(C)=O [Butylacetate]			11 Torr	Dissolution capacity for DIOXACARB [1]: 5 weight %
COCCOC(C)=O [2-Methoxyethyl acetate]	20		5 Torr	Dissolution capacity for ARPROCARB ([1]; at 20° C, solute Arprocarb): 33 weight %
ClC=C(Cl)Cl [Trichloroethylene]	2	approximately 2%	74 Torr	
CCCOC(C)=O [Propylacetate]	6		33 Torr	

Molecule	Dissolution capacity for DIOXACARB ([1]; at 20° C, solute Dioxacarb) [weight %]	Dissolving capacity for Dioxacarb ([1]; at 20° C, solute Dioxacarb)	Vapour pressure [2]	further results
CC(C)O [Isopropanol]	4.5	4.5%	44 Torr	Dissolution capacity for ARPROCARB ([1]; at 20° C, solute Arprocarb): 30 weight %; Dissolving capacity for Arprocarb [1, 3]: approximately 30%
CCCCC(CC)COC(=O)CCCCC(=O)OCC(CC)CCCC (stereo not shown) [Di(2-ethylhexyl)adipate)]	2.0		0.007 Torr	Dissolution capacity for ARPROCARB ([1]; at 20° C, solute Arprocarb): 2.8 weight %; Dissolving capacity for Arprocarb [1, 3]: 2.8%; Vapour pressure ([2]; listed as Di(2-ethyl-hexyl) adipate): ~0.007 Torr; Vapour pressure ([2]; listed as di(ethyl-2-hexyl) adipate): < 0.005 Torr
CC(=O)OC(C)C [Isopropylacetate]	6		55 Torr	
CCCCCO [Amylalcohol]	2.6	2.6%	2.5 Torr	
CCOC(C)=O [Ethylacetate]	10.5	10.5%	97 Torr	
CCCCCCCCCCCCCC(=O)OC(C)C [Isopropylmyristate]	0.3	0.3%		Dissolution capacity for ARPROCARB ([1]; at 20° C, solute Arprocarb): 1.3 weight %; Dissolving capacity for Arprocarb [1, 3]: 1.3%; Vapour pressure ([2]; listed as Isopropyl myristate): ca. 0.001 Torr; Vapour pressure ([2]; listed as isopropylmyristate): < 0.005 Torr
CCCCCCCC(=O)O [Octanoic acid]	1.5		0.002 Torr	
c1ccccc1 [Benzene]				Dissolution capacity for DIOXACARB [1]: 3 weight %; Dissolving capacity for Dioxacarb [1]: 3%
CCCC(=O)OCC [Ethylbutyrate]	7		17 Torr	
CCCCCCCCCCCCO [Composition 1-Dodecanol, 1-Dodecanol]	0.8		0.001 Torr	
CCCCOCCOCCOCCCC [5,8,11-Trioxapentadecane, 5,8,11-Trioxapenta-decane]	3.2		0.002 Torr	
CCCCCCCC/C=C/CCCCCCCC(=O)CCCCCCC/C=C/CCCCCCCC [Oleone]	0.2		< 10^-6 Torr	
CCCCCCCCCCCCC1CC(=O)OC1=O (stereo not shown) [2-Dodecylsuccinic-acid anhydride]	2.9		0.007 Torr	
ter. Dodecanethiol	0.2		0.008 Torr	
CCOC(=O)CC [Ethylpropionate]	9		37 Torr	
CCCCCCC [Heptane]		about 0.2%	38.5 Torr	Dissolution capacity for ARPROCARB ([1]; at 20° C, solute Arprocarb): 0.3 weight %; Dissolving capacity for Arprocarb [1, 3]: 0.3%
CCC(N)(CO)CO [2-Amino-2-ethyl-1,3-propanediol]	2.4		0.01 Torr	
COCCO [2-Methoxyethanol]			8.6 Torr	Dissolution capacity for DIOXACARB [1]: 15 weight %; Dissolving capacity for Dioxacarb [1]: about 15%
CCCCCCCCCCCCCCCC [Hexadecane]	0		0.003 Torr	Vapour pressure ([2]; listed as hexadecane): < 0.005 Torr
CC(C)=O [Acetone]			225 Torr	Dissolution capacity for DIOXACARB [1]: 28 weight %; Dissolving capacity for Dioxacarb [1]: 28%
CCCCCCCCCCCCCCCCCl [1-Chlorohexadecane]	0.7	0.7%	< 0.0001 Torr	Dissolving capacity for Arprocarb of the 1:1 mixture with 5-(3,6,9-trioxa-un-decyl-2-oxy)-1,3-benzodioxole ([1]; at 20° C, 1:1 mixture with T.U.O.B.): 2%; Dissolution capacity for ARPROCARB ([1]; at 20° C, solute Arprocarb): 0.4 weight %; Dissolving capacity for Arprocarb [1, 3]: 0.4%; Vapour pressure ([2]; listed as 1-chlorohexadecane): < 0.005 Torr; Vapour pressure ([2]; listed as Chlorohexadecane): below 0.0001 Torr
C1COCCO1 [Dioxan]	23	23%	35 Torr	
CCCCOC(=O)c1ccccc1C(=O)OCCCC [Dibutylphthalate]	2.7	2.7%	< 0.0001 Torr	Vapour pressure ([2]; listed as Dibutyl phthalate): ca. 0.0001 Torr; Vapour pressure ([2]; listed as dibutylphthalate): < 0.005 Torr
CCOCCOCCOC(C)Oc1ccc2c(c1)OCO2 (stereo not shown) [T.U.O.B., 5-(3,6,9-trioxa-undecyl-2-oxy)-1,3-benzodioxole]	2.9	2.9%	< 0.005 Torr	Dissolution capacity for ARPROCARB ([1]; at 20° C, solute Arprocarb): 5.0 weight %; Dissolving capacity for Arprocarb [1, 3]: 5%
CC(Cl)(Cl)Cl [1.1.1-Trichloro-ethane]	2.3	2.3%	121 Torr	
